Source: US20250041309A1 (ZHENAO JINYINHUA PHARMACEUTICAL, priority 2021, published 2025)
“And” between values parts separate entries of the source, which are not always exact repeats. Equal values may be shown once. Where a name gives a salt, the structure may show the parent alone.

Legend:
Type in all cases: in vivo, SD rats
[1] = Weight monitoring of MCAO rats, oral administration (Example 21); conditions: gavage 4 mg/kg twice per day; for Weight D 0: D 0, group mean; for Weight D 4: D 4, group mean; for Weight D 7: D 7, group mean; for Weight D 11: D 11, group mean; for Weight D 14: D 14, group mean; for Weight D 18: D 18, group mean; for Weight D 21: D 21, group mean; for Weight D 25: D 25, group mean; for Weight D 28: D 28, group mean
Description: Administration route: gavage administration; Dosage: 4 mg/kg body weight, twice per day; Administration time: gavage administration twice in the morning and evening per day (administered immediately after modeling). A rat model of middle cerebral artery ischemia/reperfusion (MCAO/R) was created using the suture method. […] After surgical exposure of the carotid artery, suture was performed without ischemia-reperfusion injury; • (3) Treatment group 1: MCAO model+[…] citrate drug treatment group; • (4) Treatment group 2: MCAO model+Sildenafil citrate drug treatment group; […]

MCAO rats [2] = assay: Neurological function (behavioral) score in MCAO rats, oral administration (Example 23); conditions: gavage 8 mg/kg twice a day; after 3, 7 and 14 days administration
Description: (§1) Administration route: gavage administration;
(§2) Dosage: 8 mg/kg body weight, twice a day;
(§3) Administration time: gavage administration twice a day in the morning and evening (administered immediately after modeling).
(§4) A rat model of middle cerebral artery ischemia/reperfusion (MCAO/R) was created using suture-occluded method.
After 2 hours of embolization, then reperfusion, according to the scoring criteria in the attached table, the degree of neurological damage in the animals was scored using a blind method. Those with significant neurological deficits (>8 points) were considered successful in modeling.
(§5) The successfully modeled rats were randomly divided into 4 groups based on their scores, with an average of 20 rats in each group.
Neurological function score: evaluation was conducted before treatment, 3 days, 7 days, and 14 days after treatment.

MCAO rats [3] = assay: Cerebral infarction range (TTC) in MCAO rats, oral administration (Example 23); conditions: gavage 8 mg/kg*2, after 14 days
Description: as §1, §2, §3, §4, §5
At the end of the experiment, the brain tissue of the rats was collected by bloodletting and frozen in a −20° C. freezer, and then is sliced into a thickness of 2 mm per slice. The brain tissue slices were placed in a 2% red tetrazolium (TTC) solution and incubated at 37° C. for 5 minutes. The infarcted tissue appeared white, while the non-infarcted tissue appeared red. Image J software was used to measure the area of cerebral infarction and the percentage of infarct area to the total brain area was calculated.

MCAO rats [4] = assay: Neurological deficits (mNSS) score in MCAO rats, oral administration (Example 21); parameters: scale not given here; conditions: gavage 4 mg/kg twice per day, one value per rat (30 per group)
Description: as §1
Dosage: 4 mg/kg body weight, twice per day;
Administration time: gavage administration twice in the morning and evening per day (administered immediately after modeling).
A rat model of middle cerebral artery ischemia/reperfusion (MCAO/R) was created using the suture method.
Scores were evaluated using the mNSS rat neurological deficit scoring method. The neurological deficits of the experimental rats were evaluated on 14 days after modeling. • ?

MCAO rats [5] = assay: Morris water maze experiment in MCAO rats, oral administration (Example 21); conditions: gavage 4 mg/kg twice per day, 14 days water maze test
Description: Morris water maze experiment: testing the learning and memory abilities of rats.
The Morris water maze experiment is conducted continuously for 6 days each time, with training conducted for the first 5 days and testing conducted on 6th day.
For each of the tests, the rats were trained four times a day at a fixed time period for the first five days (once in the first, second, third, and fourth quadrants respectively). At the beginning of the training, a platform was placed in the first quadrant, and from any starting points of the four quadrants on the pool wall, the rats were placed into the pool, facing the pool wall. The camera system records the time when the rats found the platform and their swimming path. Four training sessions involved placing rats into water from four different starting points. If the rat finds the platform or cannot find it within 60 seconds, the experimenter will guide it to the platform, rest on the platform for 10 seconds, and then proceed to the next experiment.
The rats were removed from the platform, dried with a soft cloth, and put back into the cage. Afterwards, the next experiment on the rat was performed until the numbered animals had finished swimming, and then the next set of experiments was conducted.
This experiment was conducted on the 14th day after administration. […]

[6] = tested on: ischemic stroke model rats; assay: Cerebral infarction range (TTC), ischemic stroke model rats, intravenous administration (Example 22); conditions: 10 mg/kg iv qd 7 d
Source text: (§6) On the day of the experiment, the rat was anesthetized with isoflurane gas and placed in a supine position for fixation. The skin was cut along the midline of the neck to expose the right common carotid artery. The nerves and fascia around the blood vessels from the common carotid artery bifurcation to the base of the skull were carefully removed, and the external and internal carotid arteries were separated sequentially. The MCAO suture was inserted from the free end of the external carotid artery, and the nylon suture was introduced into the internal carotid artery from the distal end of the external carotid artery. It was inserted into the Willis ring of the middle cerebral artery to effectively block the middle cerebral artery. The length of the inserted suture was 18-20 mm away from the bifurcation of the common carotid artery. Then the free end of the external carotid artery was ligated along with the endovascular suture to prevent bleeding. […] Animals were kept in cages. The animals successfully modeled were randomly divided into three groups based on their scores, namely the model control group, compound 1 AD group ([…] citrate group) 10 mg/kg, and compound 2 XD group (Sildenafil citrate group) 10 mg/kg, with 10 animals in each group. […] The endpoint of the experiment was 14 days after administration, and the dosage is detailed in the table below. This experiment was administered intravenously with a dosage of 10 mg/kg and a volume of 5 mL/kg, once per day for consecutive 7 days. At the end of the experiment, the brain tissue of the rats was collected by bloodletting and frozen in a -20° C. freezer, then are sliced with a thickness of 2 mm per slice. The brain tissue slices were placed in a 2% red tetrazolium (TTC) solution and incubated at 37° C. for 5 minutes. The infarcted tissue appeared white, while the non-infarcted tissue appeared red.

[7] = tested on: ischemic stroke model rats; assay: Neurological function (behavioral) score, ischemic stroke model rats, intravenous administration (Example 22); parameters: scale not given here; conditions: 10 mg/kg iv qd 7 d, x ± s, n = 10
Source text: as §6, with “cages. After 2 hours of embolization, then reperfusion, according to the scoring criteria in the attached table, the degree of neurological damage in the animals was scored using a blind method. Those with significant neurological deficits (>8 points) were considered successful in modeling. • ? Grouping and administration” for “cages.”, “Score before treatment, 3 days after treatment, 7 days after treatment,” for “At the end of the experiment, the brain tissue of the rats was collected by bloodletting”, “14 days after treatment.” for “frozen in a -20° C. freezer, then are sliced with a thickness of 2 mm per slice. The brain tissue slices were placed in a 2% red tetrazolium (TTC) solution and incubated at 37° C. for 5 minutes. The infarcted tissue appeared white, while the non-infarcted tissue appeared red.”

Compound | Weight D 0 [1] | Weight D 4 [1] | Weight D 7 [1] | Weight D 11 [1] | Weight D 14 [1] | Weight D 18 [1] | Weight D 21 [1] | Weight D 25 [1] | Weight D 28 [1] | behavioral scores compared with the model control group (MCAO rats [2]) | Improvement rate % of cerebral infarction range (MCAO rats [3]; versus model control group) | Total cerebral infarction % (MCAO rats [3]; x ± s, n = 20) | Score for neurological deficits (mNSS) after 14 days of administration, individual rats (MCAO rats [4]) | average latency period, Morris water maze (MCAO rats [5]) | Total cerebral infarction % ([6]; 14 days after administration, x ± s, n = 10) | Improvement rate % of cerebral infarction range ([6]; 14 days, versus model control group) | behavioral score, 3 days after medication ([7]; 3 days after medication) | behavioral score, 7 days after medication ([7]; 7 days after medication) | behavioral score, 14 days after medication ([7]; 14 days after medication) | behavioral score, Before medication ([7]; before medication)
CCCc1nn(C)c2c(=O)[nH]c(-c3cc(S(=O)(=O)N4C[C@@H](C)N[C@@H](C)C4)ccc3OCC)nc12 [Aildenafil, 1-[3-(6,7-dihydro-1-methyl-7-oxy-3-n-propyl-1H-pyrazolo[4,3-d]pyrimidin-5-yl)-4-ethoxybenzenesulfonyl]-3,5-dimethylpiperazine] | 303.9 g | 251.4 g | 253.8 g | 274.1 g | 287.2 g | 312.0 g | 321.3 g | 341.9 g | 345.0 g | significant improvement | 31.5% | 17.0 ± 6.7 % | 7 (7×) and 5 (3×) and 6 (7×) and 8 (6×) and 9 (4×) and 10 (2×) | 8.93 s |  |  |  |  |  | 
CCCc1nn(C)c2c(=O)[nH]c(-c3cc(S(=O)(=O)N4CCN(C)CC4)ccc3OCC)nc12 [Sildenafil citrate] | 297.7 g | 251.4 g | 249.0 g | 266.9 g | 282.4 g | 307.6 g | 318.3 g | 339.6 g | 345.9 g |  |  |  | 8 (10×) and 9 (8×) and 7 (7×) and 10 (3×) and 5 and 6 | 16.88 s | 21.5 ± 8.6% | 14.0% | 7.4 ± 1.4 | 6.1 ± 1.7 | 4.9 ± 1.7 | 9.6 ± 0.5
